Measurements from patent US20200171022A1, “FLT3 INHIBITORS FOR IMPROVING PAIN TREATMENTS BY OPIOIDS” (INSERM (Institut National de la Santé et da la Recherche …, priority 2017, published 2020).

Experiments:
Male Sprague-Dawley rats [1] = experiment: Potentiation of morphine-induced analgesia and morphine-dose sparing, paw pressure test (Example 4); details: for pressure exerted on the hindpaw to obtain withdrawal: BDT001 1 mg/kg, morphine 1.5 mg/kg, mean±S.E.M., 6 animals, saline 250±7.4 g
Procedure: (§1) Paw pressure test: Mechanical hyperalgesia was measured as the threshold to a noxious mechanical stimulus. […] Briefly, a constantly increasing pressure is applied to the rat hind paw until vocalization occurs. A Basile analgesimeter (Bioseb, France; stylus tip diameter, 1 mm) was used. A 600-g cut-off value was determined to prevent tissue damage.
To evaluate the group effects of treatments, two-way ANOVA with repeated measurements were performed followed by Dunnett's post-hoc test. Newman-Keul's test was used for multiple comparisons between groups. A difference was accepted as significant if the probability that it occurred by chance alone was less than 5% (P<0.05).

Male Sprague-Dawley rats [2] = experiment: Tolerance to morphine analgesia after chronic morphine treatment, paw pressure test (Example 5); format: in vivo, rat; details: morphine 2 mg/kg s.c. twice daily for 4 days, D0 to D4, control animals
Procedure: Rats were kept under controlled environmental conditions (22° C., 60% relative humidity, 12 h light/dark cycle with lights on at 7:00 A.M., food and water ad libitum). To limit the stress induced by the experimental procedure, the general plan for an experimental phase was as follows: • arrival and housing of the animals: 4 days; • acclimatization of the animals for 10 days to the experimental conditions in order to avoid any possibility of measurement bias being induced by stress; • evaluation of nociceptive threshold baseline • repeated opioid administration and evaluation of treatment effects
as §1
Intrathecal injection was performed via manual lumbar puncture over one minute under anesthesia (isoflurane).
Data are presented as mean±S.E.M. To evaluate the time-course effects of treatments and individual group comparisons, one-way and two-way ANOVA with repeated measurements were performed followed by Dunnett's post hoc test. Bonferroni's test was used for multiple comparisons between groups. […]

wild-type (Flt3+/+) mice = experiment: Mechanical pain hypersensitivity after repeated morphine, von Frey test (Example 3); details: morphine 10 mg/kg twice a day for 4 days, compared to saline
Procedure: Experiments were performed in male mice carrying a homozygous deletion of Flt3 (F1t3KO mice)^24 and their littermates (WT) weighing 25-30 g. […] Animals were maintained in a climate-controlled room on a 12 h light/dark cycle and allowed access to food and water ad libitum. To limit the stress induced by the experimental procedure, the general plan for an experimental phase was as follows: • arrival and housing of the animals: 4 days; • evaluation of nociceptive threshold baseline; • repeated opioid administration and evaluation of treatment effects
Filaments were applied perpendicularly to the plantar surface of the paw. The 50% paw withdrawal threshold was determined in grams by the Dixon nonparametric test. The protocol was repeated until three changes in behavior occurred.
(§2) Data are presented as mean±S.E.M. To evaluate the time-course effects of treatments and individual group comparisons, one-way and two-way ANOVA with repeated measurements were performed followed by Dunnett's post hoc test. Bonferroni's test was used for multiple comparisons between groups. A difference was accepted as significant if the probability that it occurred by chance alone was less than 5% (P<0.05).

Male Sprague-Dawley rats [3] = experiment: Morphine-induced mechanical pain hypersensitivity and latent pain sensitization, paw pressure test (Example 6); details: morphine 2 mg/kg twice daily for 4 days; observed on D2, back to baseline on D9
Procedure: Rats were kept under controlled environmental conditions (22° C., 60% relative humidity, 12 h light/dark cycle with lights on at 7:00 A.M., food and water ad libitum). To limit the stress induced by the experimental procedure, the general plan for an experimental phase was as follows: • arrival and housing of the animals: 4 days; • acclimation of the animals for 10 days to the experimental conditions in order to avoid any possibility of measurement bias being induced by stress; • evaluation of nociceptive threshold baseline • repeated opioid administration and evaluation of treatment effects
Mechanical hyperalgesia was measured as the threshold to a noxious mechanical stimulus. […] Briefly, a constantly increasing pressure is applied to the rat hind paw until vocalization occurs. A Basile analgesimeter (Bioseb, France; stylus tip diameter, 1 mm) was used. A 600-g cut-off value was determined to prevent tissue damage.
as §2

| Compound | pressure exerted on the hindpaw to obtain withdrawal (Male Sprague-Dawley rats [1]; 30 min after administration) | morphine-dose sparing effect (Male Sprague-Dawley rats [1]; BDT001 1 mg/kg i.p.) | analgesia by itself (Male Sprague-Dawley rats [1]; BDT001 1 mg/kg i.p. alone, 30 min after administration) | morphine-induced analgesia (percentage of MPE) on repeated morphine administration (Male Sprague-Dawley rats [2]) | nociceptive threshold (mechanical pain hypersensitivity) after repeated morphine (wild-type (Flt3+/+) mice) | morphine-induced analgesia (area under the curve) (Male Sprague-Dawley rats [1]; morphine 0.5, 1, 1.5 or 2 mg/kg s.c. alone) | nociceptive threshold (pain hypersensitivity) in morphine-treated animals (Male Sprague-Dawley rats [3]) |
| --- | --- | --- | --- | --- | --- | --- | --- |
| O=C(Nc1cc(Cl)ccc1O)c1cccc(S(=O)(=O)N2CCCCC2)c1 [BDT001, N-(5-chloro-2-hydroxyphenyl)-3-(piperidin-1-ylsulfonyl)benzamide] | 252.5 ± 9.0 g | 30% | did not produced analgesia by itself |  |  |  |  |
| CN1CC[C@]23c4c5ccc(O)c4O[C@H]2[C@@H](O)C=C[C@H]3[C@H]1C5 [morphine] | 502.5 ± 20.0 g |  |  | induced a progressive decrease in morphine-induced analgesia | induced a decrease in the nociceptive threshold | induced analgesia in a dose-dependent manner | significant decrease in the nociceptive threshold |
